From publication PMC10604720, “Unraveling the Mechanism of Epichaperome Modulation by Zelavespib: Biochemical Insights on Target Occupancy and Extended Residence Time at the Site of Action” (Biomedicines, 2023)

Tested on: epichaperomes
Test: In vivo target-drug unbinding kinetics taken from Phase 2 tumor pharmacokinetics
Design: species or system mouse
Procedure: Figure 1 Biodistribution of zelavespib in MDA-MB-468 tumor-bearing mice. (a) Biodistribution of [^124I]-Zelavespib in MDA-MB-468 tumors, organs, tissues, and plasma as per ref. [32]. Data are presented as means ± s.d., five mice per time point. Curves for blood, lung, heart, muscle, bone, and brain were fitted using a one-phase decay equation, and kinetics of zelavespib clearance were determined. Tumor curve was fitted to a two-phase exponential decay. k, kfast, and kslow are the rate constants. Half-life (T1/2) is computed as ln(2)/k. […] (b) Illustrative schematic showing the distinct binding kinetics of zelavespib to epichaperomes (slow off-rate) and to chaperone assemblies (fast off-rate). The tumor pharmacokinetics profile recorded in the Phase 2 interval may represent a direct reflection of the in vivo kinetics of target–drug unbinding. koff, kinetic rate constant for dissociation of an epichaperome-zelavespib assembly. Rt, retention time. […]

## CC(C)NCCCn1c(Sc2cc3c(cc2I)OCO3)nc2c(N)ncnc21 [zelavespib]
epichaperome-zelavespib assembly
  Rt = 1/koff (retention time): 67.56 h
Taken as k of tumor Phase 2
  koff, dissociation of epichaperome-zelavespib assembly: 4.11e-06 s⁻¹
